Test results reported in patent publication US11077100B2, “Tetrahydroquinoline derivatives as P2X7 receptor antagonists” (RaQualia Pharma Inc., priority 2017, dated 2021).

How the values were obtained:
[1] = molecular target: rat P2X7 (Rattus norvegicus (Rat), UniProt Q64663); experiment: Rat P2X7 functional assay (Ca2+ influx, Fluo-4, FDSS); format: cell-based; settings: HEK293 cells stably expressing rat P2X7; BzATP final 10 microM; 7-point dose-response; read-out: Antagonistic activities with respect to the rat P2X7 receptor (IC50)
In short: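 IC50 derived from 7-point dose-response in duplicate, measuring inhibition of BzATP-evoked (final 10 microM) intracellular Ca2+ increase by Fluo-4 fluorescence on FDSS. Rat P2X7-HEK293 cells were exposed to compound for 10 min in the dark beforehand.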

[2] = molecular target: human P2X7 (Homo sapiens (Human), UniProt Q99572); experiment: Human P2X7 functional assay (Ca2+ influx, Fluo-4, FDSS); format: cell-based; settings: antagonistic activity with respect to the human P2X7 receptor; BzATP final concentration 80 microM
In short: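 Ca2+ influx was triggered with BzATP (80 μM final) after a 10-min room-temperature compound preincubation and monitored with Fluo-4 (ex 480/em 540 nm) on FDSS. The cells were HEK293 stably carrying FLAG-tagged human P2X7. Duplicate-averaged 7-point dose-responses gave IC50s.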

Chain of human P2X7 (Q99572 whole entry): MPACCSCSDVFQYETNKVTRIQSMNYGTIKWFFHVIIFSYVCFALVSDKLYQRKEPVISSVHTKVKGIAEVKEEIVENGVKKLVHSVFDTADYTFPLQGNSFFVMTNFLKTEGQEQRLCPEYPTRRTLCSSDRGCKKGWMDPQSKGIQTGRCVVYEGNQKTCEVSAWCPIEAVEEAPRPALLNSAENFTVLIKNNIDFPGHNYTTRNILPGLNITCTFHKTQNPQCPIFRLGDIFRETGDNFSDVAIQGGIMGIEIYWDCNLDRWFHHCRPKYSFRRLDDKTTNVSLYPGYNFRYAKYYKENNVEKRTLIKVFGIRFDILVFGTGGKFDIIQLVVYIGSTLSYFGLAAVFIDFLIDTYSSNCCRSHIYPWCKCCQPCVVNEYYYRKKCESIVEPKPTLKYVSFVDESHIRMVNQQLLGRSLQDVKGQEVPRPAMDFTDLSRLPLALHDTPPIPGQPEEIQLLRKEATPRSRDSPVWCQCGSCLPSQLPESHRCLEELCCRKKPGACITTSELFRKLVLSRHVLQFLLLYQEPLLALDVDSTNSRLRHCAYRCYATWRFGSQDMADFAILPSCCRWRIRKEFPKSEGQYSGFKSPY
Chain of rat P2X7 (Q64663 whole entry): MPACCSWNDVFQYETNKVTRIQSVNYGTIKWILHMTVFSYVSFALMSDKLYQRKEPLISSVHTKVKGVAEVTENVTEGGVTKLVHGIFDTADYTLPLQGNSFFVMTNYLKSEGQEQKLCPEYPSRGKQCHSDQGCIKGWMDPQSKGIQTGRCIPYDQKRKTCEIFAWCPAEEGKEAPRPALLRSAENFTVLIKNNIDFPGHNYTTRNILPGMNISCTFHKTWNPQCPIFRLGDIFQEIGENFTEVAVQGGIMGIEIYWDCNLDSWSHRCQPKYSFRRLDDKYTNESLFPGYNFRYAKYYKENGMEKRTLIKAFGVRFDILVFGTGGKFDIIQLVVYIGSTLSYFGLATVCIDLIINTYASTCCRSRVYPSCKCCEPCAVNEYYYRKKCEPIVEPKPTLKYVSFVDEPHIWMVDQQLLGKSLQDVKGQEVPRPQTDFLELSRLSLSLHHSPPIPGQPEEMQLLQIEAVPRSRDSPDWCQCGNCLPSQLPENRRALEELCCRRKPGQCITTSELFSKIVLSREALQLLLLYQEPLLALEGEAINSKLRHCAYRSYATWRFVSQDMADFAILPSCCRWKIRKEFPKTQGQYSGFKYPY

IC50 [1] [nM]	IC50 [2] [nM]	Compound
< 1000	< 50	O=C1CC[C@@](F)(C(=O)NCc2cccc(Cl)c2Cl)c2cccnc21 [Example 252, (S)-N-(2,3-dichloro-benzyl)-5-fluoro-8-oxo-5,6,7,8-tetrahydroquinoline-5-carboxamide]
< 1000	< 50	O=C1CC[C@@](F)(C(=O)NCc2ccc(C(F)(F)F)cc2Cl)c2cccnc21 [Example 253, (S)-N-(2-chloro-4-(trifluoromethyl)benzyl)-5-fluoro-8-oxo-5,6,7,8-tetrahydroquinoline-5-carboxamide]
< 1000	301 to 1000	O=C1CC[C@@](F)(C(=O)NCc2ccc(F)c(F)c2F)c2cccnc21 [Example 254, (S)-5-fluoro-8-oxo-N-(2,3,4-trifluorobenzyl)-5,6,7,8-tetrahydro-quinoline-5-carboxamide]
< 1000	< 50	C[C@]1(O)CC[C@@](F)(C(=O)NCc2ccc(Cl)cc2Cl)c2cccnc21 [Example 256, (5S,8S)-N-(2,4-dichlorobenzyl)-5-fluoro-8-hydroxy-8-methyl-5,6,7,8-tetrahydroquinoline-5-carboxamide]
< 1000	101 to 300	C[C@@]1(O)CC[C@@](F)(C(=O)NCc2ccc(Cl)cc2Cl)c2cccnc21 [Example 257, (5S,8R)-N-(2,4-dichlorobenzyl)-5-fluoro-8-hydroxy-8-methyl-5,6,7,8-tetrahydroquinoline-5-carboxamide]
< 1000	< 50	C[C@]1(O)CC[C@@](F)(C(=O)NCc2ccc(F)c(F)c2F)c2cccnc21 [Example 258, (5S,8S)-5-fluoro-8-hydroxy-8-methyl-N-(2,3,4-trifluorobenzyl)-5,6,7,8-tetrahydroquinoline-5-carboxamide]
< 1000	< 50	C[C@]1(O)CC[C@@](F)(C(=O)NCc2ccc(F)cc2Cl)c2cccnc21 [Example 259, (5S,8S)-N-(2-chloro-4-fluorobenzyl)-5-fluoro-8-hydroxy-8-methyl-5,6,7,8-tetrahydroquinoline-5-carboxamide]
< 1000	301 to 1000	C[C@@]1(O)CC[C@@](F)(C(=O)NCc2ccc(F)cc2Cl)c2cccnc21 [Example 260, (5S,8R)-N-(2-chloro-4-fluorobenzyl)-5-fluoro-8-hydroxy-8-methyl-5,6,7,8-tetrahydroquinoline-5-carboxamide]
< 1000	< 50	C[C@]1(O)CC[C@@](F)(C(=O)NCc2c(Cl)cc(Cl)cc2CO)c2cccnc21 [Example 261, (5S,8S)-N-(2,4-dichloro-6-(hydroxymethyl)benzyl)-5-fluoro-8-hydroxy-8-methyl-5,6,7,8-tetrahydroquinoline-5-carboxamide]
< 1000	< 50	C[C@]1(O)CC[C@@](F)(C(=O)NCc2c(Cl)cc(F)cc2CO)c2cccnc21 [Example 262, (5S,8S)-N-(2-chloro-4-fluoro-6-(hydroxymethyl)benzyl)-5-fluoro-8-hydroxy-8-methyl-5,6,7,8-tetrahydroquinoline-5-carboxamide]
< 1000	< 50	C[C@]1(O)CC[C@@](F)(C(=O)NCc2ccc(F)cc2F)c2cccnc21 [Example 263, (5S,8S)-N-(2,4-difluorobenzyl)-5-fluoro-8-hydroxy-8-methyl-5,6,7,8-tetrahydroquinoline-5-carboxamide]
< 1000	< 50	C[C@]1(O)CC[C@@](F)(C(=O)NCc2ccc(Cl)cc2F)c2cccnc21 [Example 264, (5S,8S)-N-(4-chloro-2-fluorobenzyl)-5-fluoro-8-hydroxy-8-methyl-5,6,7,8-tetrahydroquinoline-5-carboxamide]
< 1000	< 50	C[C@]1(O)CC[C@@](F)(C(=O)NCc2ccc(F)c(Cl)c2F)c2cccnc21 [Example 268, (5S,8S)-N-(3-chloro-2,4-difluorobenzyl)-5-fluoro-8-hydroxy-8-methyl-5,6,7,8-tetrahydroquinoline-5-carboxamide]
< 1000	< 50	C[C@]1(O)CC[C@@](F)(C(=O)NCc2c(F)cc(Cl)cc2F)c2cccnc21 [Example 269, (5S,8S)-N-(4-chloro-2,6-difluorobenzyl)-5-fluoro-8-hydroxy-8-methyl-5,6,7,8-tetrahydroquinoline-5-carboxamide]
< 1000	< 50	C[C@@H](NC(=O)[C@]1(F)CC[C@](C)(O)c2ncccc21)c1ccc(F)cc1Cl [Example 270, (5S,8S)-N-((R)-1-(2-chloro-4-fluorophenyl)ethyl)-5-fluoro-8-hydroxy-8-methyl-5,6,7,8-tetrahydroquinoline-5-carboxamide]
< 1000	< 50	C[C@]1(O)CC[C@@](F)(C(=O)NCc2ncc(Cl)cc2Cl)c2cccnc21 [Example 272, (5S,8S)-N-((3,5-dichloropyridin-2-yl)methyl)-5-fluoro-8-hydroxy-8-methyl-5,6,7,8-tetrahydroquinoline-5-carboxamide]
< 1000	< 50	CN(CCO)C[C@]1(O)CC[C@@](F)(C(=O)NCc2ccc(Cl)cc2Cl)c2cccnc21 [Example 277, (5S,8R)-N-(2,4-dichlorobenzyl)-5-fluoro-8-hydroxy-8-(((2-hydroxyethyl) (methyl)amino)methyl)-5,6,7,8-tetrahydroquinoline-5-carboxamide]
< 1000	< 50	O=C(NCc1ccc(Cl)cc1Cl)[C@@]1(F)CC[C@](O)(CN2CC(O)C2)c2ncccc21 [Example 279, (5R,8S)-N-(2,4-dichlorobenzyl)-5-fluoro-8-hydroxy-8-((3-hydroxyazetidin-1-yl)methyl)-5,6,7,8-tetrahydroquinoline-5-carboxamide]
< 1000	< 50	N#CC[C@]1(O)CC[C@@](F)(C(=O)NCc2ccc(Cl)cc2Cl)c2cccnc21 [Example 280, (5S,8R)-8-(cyanomethyl)-N-(2,4-dichlorobenzyl)-5-fluoro-8-hydroxy-5,6,7,8-tetrahydroquinoline-5-carboxamide]
< 1000	301 to 1000	N#CC[C@]1(O)CC[C@@](F)(C(=O)NCc2ccc(F)cc2Cl)c2cccnc21 [Example 281, (5S,8R)-N-(2-chloro-4-fluorobenzyl)-8-(cyanomethyl)-5-fluoro-8-hydroxy-5,6,7,8-tetrahydroquinoline-5-carboxamide]
< 1000	< 50	N#CC[C@@]1(O)CC[C@@](F)(C(=O)NCc2ccc(F)cc2Cl)c2cccnc21 [Example 282, (5S,8S)-N-(2-chloro-4-fluorobenzyl)-8-(cyanomethyl)-5-fluoro-8-hydroxy-5,6,7,8-tetrahydroquinoline-5-carboxamide]
< 1000	< 50	N#CC[C@]1(O)CC[C@@](F)(C(=O)NCc2c(Cl)cc(Cl)cc2CO)c2cccnc21 [Example 283]
< 1000	< 50	N#CC[C@]1(O)CC[C@@](F)(C(=O)NCc2c(Cl)cc(F)cc2CO)c2cccnc21 [Example 284, (5S,8R)-N-(2-chloro-4-fluoro-6-(hydroxymethyl)benzyl)-8-(cyanomethyl)-5-fluoro-8-hydroxy-5,6,7,8-tetrahydroquinoline-5-carboxamide]
< 1000	< 50	O=C(NCc1ccc(Cl)cc1Cl)[C@]1(F)CC[C@@](O)(CF)c2ncccc21 [Example 285, (5S,8S)-N-(2,4-dichlorobenzyl)-5-fluoro-8-(fluoromethyl)-8-hydroxy-5,6,7,8-tetrahydroquinoline-5-carboxamide]
< 1000	< 50	O=C(NCc1ccc(F)cc1Cl)[C@]1(F)CC[C@@](O)(CF)c2ncccc21 [Example 286, (5S,8S)-N-(2-chloro-4-fluorobenzyl)-5-fluoro-8-(fluoromethyl)-8-hydroxy-5,6,7,8-tetrahydroquinoline-5-carboxamide]
< 1000	< 50	CSC[C@]1(O)CC[C@@](F)(C(=O)NCc2ccc(Cl)cc2Cl)c2cccnc21 [Example 287, (5S,8S)-N-(2,4-dichlorobenzyl)-5-fluoro-8-hydroxy-8 ((methylthio)methyl)-5,6,7,8-tetrahydroquinoline-5-carboxamide]
< 1000	< 50	CSC[C@]1(O)CC[C@@](F)(C(=O)NCc2ccc(F)cc2Cl)c2cccnc21 [Example 288, (5S,8S)-N-(2-chloro-4-fluorobenzyl)-5-fluoro-8-hydroxy-8-((methylthio)methyl)-5,6,7,8-tetrahydroquinoline-5-carboxamide]
< 1000	< 50	O=C(NCc1ccc(F)cc1Cl)[C@]1(F)CC[C@@](O)(CSCCO)c2ncccc21 [Example 289, (5S,8S)-N-(2-chloro-4-fluorobenzyl)-5-fluoro-8-hydroxy-8-(((2-hydroxyethyl)thio)methyl)-5,6,7,8-tetrahydroquinoline-5-carboxamide]
< 1000	< 50	CN1CCO[C@]2(CC[C@@](F)(C(=O)NCc3ccc(Cl)cc3Cl)c3cccnc32)C1 [Example 290, (2R,5′S)—N-(2,4-dichlorobenzyl)-5′-fluoro-4-methyl-6′,7′-dihydro-5′H-spiro[morpholine-2,8′-quinoline]-5′-carboxamide]

Compound	IC50 [1] [nM]	IC50 [2] [nM]
C[C@]1(O)CC[C@@](F)(C(=O)NCC2(N3CCOCC3)CCCCC2)c2cccnc21 [Example 274, (5S,8S)-5-fluoro-8-hydroxy-8-methyl-N-((1-morpholinocyclohexyl)methyl)-5,6,7,8-tetrahydroquinoline-5-carboxamide]	< 1000	< 50
